From ChEMBL document CHEMBL3039007, “Structure-based identification of OATP1B1/3 inhibitors” (Mol Pharmacol, 2013)

Key:
[1] = target: T1, Solute carrier organic anion transporter family member 1B1 (Homo sapiens, UniProt Q9Y6L6); details: chinese hamster, cho, 10 µM
T1 sequence (Q9Y6L6 whole entry): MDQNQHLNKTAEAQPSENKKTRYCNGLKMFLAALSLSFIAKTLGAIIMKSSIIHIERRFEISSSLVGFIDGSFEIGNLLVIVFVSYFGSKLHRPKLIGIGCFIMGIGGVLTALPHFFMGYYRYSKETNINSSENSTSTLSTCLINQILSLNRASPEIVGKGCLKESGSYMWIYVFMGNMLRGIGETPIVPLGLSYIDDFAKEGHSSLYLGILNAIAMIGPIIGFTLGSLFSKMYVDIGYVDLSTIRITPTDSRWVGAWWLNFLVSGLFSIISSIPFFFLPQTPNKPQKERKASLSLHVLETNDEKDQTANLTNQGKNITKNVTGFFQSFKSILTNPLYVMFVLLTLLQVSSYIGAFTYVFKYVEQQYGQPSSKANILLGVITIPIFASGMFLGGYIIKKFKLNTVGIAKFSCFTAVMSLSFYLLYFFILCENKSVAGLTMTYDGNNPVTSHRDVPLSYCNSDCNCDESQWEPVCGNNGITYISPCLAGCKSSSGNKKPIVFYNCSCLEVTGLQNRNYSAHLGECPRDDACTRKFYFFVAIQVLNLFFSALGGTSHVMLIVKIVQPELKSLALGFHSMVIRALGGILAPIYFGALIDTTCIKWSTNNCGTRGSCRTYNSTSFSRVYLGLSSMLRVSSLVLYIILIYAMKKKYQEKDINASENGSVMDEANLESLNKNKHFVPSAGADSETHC

[2] = target: T2, Solute carrier organic anion transporter family member 1B3 (Homo sapiens, UniProt Q9NPD5); details: chinese hamster, cho, 10 µM
T2 sequence (Q9NPD5 whole entry): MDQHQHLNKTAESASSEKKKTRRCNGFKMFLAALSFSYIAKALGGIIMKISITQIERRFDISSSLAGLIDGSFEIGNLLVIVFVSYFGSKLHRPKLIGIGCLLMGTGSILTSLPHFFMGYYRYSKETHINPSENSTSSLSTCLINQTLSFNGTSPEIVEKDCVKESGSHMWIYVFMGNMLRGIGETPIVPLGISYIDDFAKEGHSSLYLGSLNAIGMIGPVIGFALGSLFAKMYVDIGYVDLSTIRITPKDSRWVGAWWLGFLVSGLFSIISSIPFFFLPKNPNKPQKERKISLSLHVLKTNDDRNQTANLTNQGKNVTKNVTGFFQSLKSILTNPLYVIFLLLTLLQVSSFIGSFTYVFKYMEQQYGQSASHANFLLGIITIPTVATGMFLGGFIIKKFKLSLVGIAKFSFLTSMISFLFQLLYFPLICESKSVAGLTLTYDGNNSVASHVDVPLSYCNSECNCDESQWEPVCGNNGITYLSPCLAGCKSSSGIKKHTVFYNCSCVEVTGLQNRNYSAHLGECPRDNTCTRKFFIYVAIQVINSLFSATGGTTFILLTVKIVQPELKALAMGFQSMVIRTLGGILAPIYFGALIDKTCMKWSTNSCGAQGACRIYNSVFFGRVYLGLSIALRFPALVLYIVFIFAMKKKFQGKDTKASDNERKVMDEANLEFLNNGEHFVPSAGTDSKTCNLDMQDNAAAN

C[N+]1(C)CCCC(OC(=O)C(O)(c2ccccc2)c2ccccc2)C1.[Br-] (centres undefined) [MEPENZOLATE BROMIDE]
residual activity [1]: 121.8% | residual activity [2]: 106.1%

Cc1ccccc1OCC(O)CO (centres undefined) [MEPHENESIN]
residual activity [1]: 101% | residual activity [2]: 107.5%

Cc1cccc(C)c1NC(=O)C1CCCCN1C.Cl (centres undefined) [MEPIVACAINE HYDROCHLORIDE]
residual activity [1]: 96.31% | residual activity [2]: 96.16%

Sc1ncnc2nc[nH]c12 [MERCAPTOPURINE ANHYDROUS]
residual activity [1]: 107.8% | residual activity [2]: 105.3%

CC1=C2C(O)C(=O)OC3CC4C(C)(C)C(=O)C=C[C@]4(C)C(CC1)[C@]23C (some centres undefined) [MEROGEDUNIN]
residual activity [1]: 106.3% | residual activity [2]: 83.06%

O=S(=O)([O-])CCS.[Na+] [MESNA]
residual activity [1]: 95.36% | residual activity [2]: 97.81%

CC(=O)Nc1cccc(O)c1 [METACETAMOL]
residual activity [1]: 66.39% | residual activity [2]: 79.17%

COc1cc2c(cc1OC)C(=O)OC2 [METAMECONINE]
residual activity [1]: 92.42% | residual activity [2]: 95.41%

CC(C)NCC(O)c1cc(O)cc(O)c1 (centres undefined) [METAPROTERENOL]
residual activity [1]: 108.3% | residual activity [2]: 111.7%

Cc1cc(C)cc(OCC2CNC(=O)O2)c1 (centres undefined) [METAXALONE]
residual activity [1]: 88.21% | residual activity [2]: 93.18%

CC(=O)OC(C)C[N+](C)(C)C.[Cl-] (centres undefined) [METHACHOLINE CHLORIDE]
residual activity [1]: 86.62% | residual activity [2]: 106.9%

C=C1c2cccc(O)c2C(=O)C2=C(O)[C@]3(O)C(=O)C(C(N)=O)=C(O)[C@@H](N(C)C)[C@@H]3[C@@H](O)[C@H]12.Cl [METHACYCLINE HYDROCHLORIDE]
residual activity [1]: 110.8% | residual activity [2]: 110.7%

COP(N)(=O)SC (centres undefined) [METHAMIDOPHOS]
residual activity [1]: 96.41% | residual activity [2]: 106%

COS(C)(=O)=O [METHANESULFONIC ACID METHYL ESTER]
residual activity [1]: 57.02% | residual activity [2]: 79.48%

CN(C)CCN(Cc1cccs1)c1ccccn1.Cl [METHAPYRILENE HYDROCHLORIDE]
residual activity [1]: 83.03% | residual activity [2]: 82.96%

CC(=O)/N=c1/sc(S(N)(=O)=O)nn1C [METHAZOLAMIDE]
residual activity [1]: 101.3% | residual activity [2]: 93.09%

C1N2CN3CN1CN(C2)C3 [METHENAMINE]
residual activity [1]: 93.33% | residual activity [2]: 72.89%

Cn1cc[nH]c1=S [METHIMAZOLE]
residual activity [1]: 111.7% | residual activity [2]: 105.6%

COc1ccccc1OCC(O)COC(N)=O (centres undefined) [METHOCARBAMOL]
residual activity [1]: 101.2% | residual activity [2]: 104.7%

CNC(=O)ON=C(C)SC [METHOMYL]
residual activity [1]: 80.5% | residual activity [2]: 109.3%

COc1ccc(OC)c(C(O)C(C)N)c1.Cl (centres undefined) [METHOXAMINE HYDROCHLORIDE]
residual activity [1]: 80.21% | residual activity [2]: 104.7%

COc1c2occc2cc2ccc(=O)oc12 [METHOXSALEN]
residual activity [1]: 102.5% | residual activity [2]: 107.3%

CON.Cl [METHOXYAMINE HYDROCHLORIDE]
residual activity [1]: 118.4% | residual activity [2]: 108.6%

COc1ccc(C(c2ccc(OC)cc2)C(Cl)(Cl)Cl)cc1 [METHOXYCHLOR]
residual activity [1]: 114% | residual activity [2]: 102.3%

COc1cc(C)c2c(=O)cc(-c3ccccc3)oc2c1 [METHOXYVONE]
residual activity [1]: 231.1% | residual activity [2]: 102.8%

C[N+]1(C)[C@@H]2C[C@@H](OC(=O)[C@H](CO)c3ccccc3)C[C@H]1[C@@H]1O[C@@H]12.[Br-] [METHSCOPOLAMINE BROMIDE]
residual activity [1]: 104.8% | residual activity [2]: 92.61%

COC(=O)c1cc(O)c(=O)c2c(O)c(O)ccc2c1 [METHYL 7-DESHYDROXYPYROGALLIN-4-CARBOXYLATE]
residual activity [1]: 48.16% | residual activity [2]: 80.24%
